# Experimental data as given in US9527819B2, “Pyridazine compounds, compositions and methods” (NORTHWESTERN UNIVERSITY, priority 2004, dated 2016).
# Assays:
# [1] = system: BV-2 mouse microglial cells; experiment: LPS-stimulated proinflammatory cytokine production in BV-2 microglial cell culture assay; assay type: cell-based; conditions: for IL-1β production / TNFα production: LPS 100 ng/ml, 16 hrs, levels in cell lysates
# Method: EL-1/3 and TNFa levels in cell lysates were determined by electro-chemiluminescent detection in a Meso-Scale Discovery (MSD) kit, as per the manufacturer's instructions.
# Data are the mean+/− SEM of triplicate determinations.
# hERG K+ channel = target: T1, hERG K+ channel (Homo sapiens, UniProt Q12809); experiment: hERG channel activity patch clamp inhibition assay; assay type: cell-based; conditions: three concentrations (0.1, 1, 10 μM), whole cell patch clamp
# T1 construct: MDS PharmaService (commercial assay service)
# From the text: The hERG channel activity inhibition assay provides whole cell electrophysiological data about compound effects on the hERG K^+ channel function. Whole cell patch clamp methodology is generally considered to be the gold-standard determination of ion channel activity, rather than simply measuring channel binding. The standard testing procedure is to use 3 to 5 concentrations of compound at log dilutions with each concentration tested in triplicate (three cells). This allows a balance between achieving a reasonably accurate IC50 measurement against a broad concentration range, and reducing cell attrition that would occur during more protracted experiment durations. After completion of compound dose-response procedures, a known hERG channel inhibitor, such as astemizole, is applied as a positive control.
# hERG = hERG (Homo sapiens, UniProt Q12809); experiment: hERG competition binding assay (3H-astemizole); conditions: HEK-293 cells stably expressing recombinant hERG channels, probe 3H-astemizole
# From the text: The initial assay is a radioligand binding assay that tests the ability of the test compound to compete with ^3H-astemizole (a reference standard that binds to hERG channels with nM affinity) for binding to recombinant hERG channels stably expressed on human HEK-293 cells. […] This is usual for medium throughout screens but is not recommended in the FDA document and tends to give false positives, as evidenced by the results reported below.
# [2] = Oral administration / brain uptake assay; conditions: mouse, in vivo
# Method: At various times (0-60 min) after administration, mice were sacrificed, blood removed by cardiac puncture, and brains immediately harvested, weighed, quick-frozen in liquid nitrogen, and stored at −80° C. until assayed. Brain tissue was homogenized in 1.5 ml of 0.1 M perchloric acid. After centrifugation (12,000×g for 10 min), the supernatant was neutralized, with 1 M NaOH and then extracted three times with 2 ml of dichloromethane by centrifugation at 3,000×g for 5 min. The organic phases from the three successive extractions were pooled and then vaporated to dryness under reduced pressure. The dried sample was reconstituted in 100 ul of HPLC mobile phase (80% acetonitrile, 0.08% formic acid, 20% H2O), and 20 μl of the reconstituted material was injected into the HPLC system. […] A standard curve of the test compound was prepared by adding increasing concentrations of the compound to brain, tissue from untreated mice, then extracting the brains and performing HPLC analysis as described above. The area under the curve increased linearly with the concentration of the compound over the range of concentrations investigated, with a correlation coefficient of 0.99.
# [3] = system: Aβ-infused mice (hippocampus); experiment: Human Aβ infusion mouse model of neuroinflammation and neuronal injury; assay type: in vivo
# From the text: Briefly, oligomeric […] was infused ICV for 28 days with a micro-osmotic pump. […] At post-operative day 60, mice were perfused and sacrificed, and hippocampal endpoints measured as previously described. Endpoint assays included immunohistochemical detection of activated astrocytes and microglia by glial fibrillary acidic protein (GFAP) and F4/80 staining, measurement of the levels of the pro-inflammatory cytokines IL-1|S, TNFa, and S100B by ELISA, and determination of synaptic damage by analysis of the levels of postsynaptic density protein-95 (PSD-95). […] Cultures were treated with control buffer, C, or activated in the absence, A, or presence, A+188, of 7.5 μMW01-5-188WH. […] Bar=125 μm. […] A schematic of the experimental paradigm is shown. […] Bars=25 μm. […] Quantification of amyloid burden from all mice (n=5/group) was done by determination of the amyloid load. Data are mean±SEM. […] (C) Spontaneous alternation of mice in the Y-maze, a hippocampus-dependent spatial learning task, was measured for 10 days during the 7th and 8th week after the start of Aβ infusion. Data are mean±SEM of n=5 or 10 per group.
# [4] = Stability in liver microsomes; assay type: in vitro ADME, rat; conditions: 1 μM, NADPH-regenerating system, 37° C.
# From the text: The HPLC system (Dionex Corp., Sunnyvale, Calif.) includes a Dionex […] pump, a Phenomenex Luna.
# anesthetized guinea pigs = experiment: Cardiac QT interval prolongation assay; assay type: in vivo, guinea pig; conditions: PO 15 mg/kg
# Method: The QT interval studies are performed by evaluating compounds for effects on QT interval in Lead II electrocardiograms measured in anesthetized guinea pigs (Hirohashi et al., 1991), one of the species recommended in the FDA white paper. Vehicle or compound is administered orally at 15 mg/kg (dosing volume of 10 ml/kg) to groups of male guinea pigs (weighing 330-350 g), with 5 animals per group. […] Heart rate, arterial blood pressure, and QT intervals are measured at baseline, and at 15, 30, 45, and 60 min after compound administration. Sotalol administered iv at 0.3 mg/kg serves as the positive control compound. The QT intervals are corrected for changes in heart rate using both Bazett's and Fridericia's formulae. Any increase in QT interval values over baseline values exceeding the upper 95% confidence limit of the mean changes at the corresponding time point in the vehicle-treated control group for two consecutive observation times indicates significant QT interval prolongation in the individually treated animals.
# activated glia = experiment: Western blots of iNOS, COX-2, apoE production in activated glia cultures; assay type: cell-based; conditions: 7.5 μM, western blot
# Method: Cultures were treated with control buffer, C, or activated in the absence, A, or presence, A+188, of 7.5 μMW01-5-188WH. […] Bar=125 μm. […] A schematic of the experimental paradigm is shown. […] Bars=25 μm. […] Quantification of amyloid burden from all mice (n=5/group) was done by determination of the amyloid load. Data are mean±SEM. […] (C) Spontaneous alternation of mice in the Y-maze, a hippocampus-dependent spatial learning task, was measured for 10 days during the 7th and 8th week after the start of Aβ infusion. Data are mean±SEM of n=5 or 10 per group.
# hERG, sequence (Q12809 whole entry): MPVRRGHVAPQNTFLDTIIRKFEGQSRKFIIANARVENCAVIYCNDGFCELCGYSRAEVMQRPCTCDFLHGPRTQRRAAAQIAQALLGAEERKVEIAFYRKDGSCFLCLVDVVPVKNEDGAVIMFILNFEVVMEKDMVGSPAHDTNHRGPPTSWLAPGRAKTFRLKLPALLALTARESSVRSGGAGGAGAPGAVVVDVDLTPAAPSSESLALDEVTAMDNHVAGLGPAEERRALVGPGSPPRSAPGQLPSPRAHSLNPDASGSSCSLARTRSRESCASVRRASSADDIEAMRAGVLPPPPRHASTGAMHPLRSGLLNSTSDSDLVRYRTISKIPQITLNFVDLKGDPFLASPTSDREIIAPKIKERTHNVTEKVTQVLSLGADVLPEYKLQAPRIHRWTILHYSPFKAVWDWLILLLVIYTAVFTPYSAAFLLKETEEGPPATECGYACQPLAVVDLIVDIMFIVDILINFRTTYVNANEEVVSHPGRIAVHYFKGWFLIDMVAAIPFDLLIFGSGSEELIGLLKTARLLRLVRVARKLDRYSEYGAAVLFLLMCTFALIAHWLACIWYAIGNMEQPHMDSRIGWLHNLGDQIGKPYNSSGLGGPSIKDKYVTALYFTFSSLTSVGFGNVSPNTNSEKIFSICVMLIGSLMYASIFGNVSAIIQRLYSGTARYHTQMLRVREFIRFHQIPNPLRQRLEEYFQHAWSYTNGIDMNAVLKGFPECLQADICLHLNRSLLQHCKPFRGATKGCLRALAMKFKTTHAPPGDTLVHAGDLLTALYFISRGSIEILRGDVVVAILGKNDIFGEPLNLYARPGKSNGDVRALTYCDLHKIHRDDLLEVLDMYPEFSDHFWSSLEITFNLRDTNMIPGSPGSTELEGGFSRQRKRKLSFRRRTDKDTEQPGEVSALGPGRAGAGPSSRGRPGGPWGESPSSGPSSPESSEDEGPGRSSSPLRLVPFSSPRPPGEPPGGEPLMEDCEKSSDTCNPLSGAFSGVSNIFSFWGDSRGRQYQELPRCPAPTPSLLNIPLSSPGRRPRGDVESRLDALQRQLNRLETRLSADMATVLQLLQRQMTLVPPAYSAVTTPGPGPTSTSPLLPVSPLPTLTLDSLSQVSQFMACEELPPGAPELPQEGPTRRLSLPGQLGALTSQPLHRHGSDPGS
# T1 sequence (Q12809 whole entry): as above
SMILES,IL-1β production [1],TNFα production [1],IC50 (hERG K+ channel) [µM],inhibition at 10 µM (hERG) [%],heart rate (anesthetized guinea pigs),mean blood pressure (anesthetized guinea pigs),other results
"c1ccc(-c2ccc(N3CCN(c4ncccn4)CC3)nn2)cc1 [MW01-3-183WH, 2-(4-(6-phenylpyridazin-3-yl)piperazin-1-yl)pyrimidine]",suppressed both IL-1β and TNFα production in a concentration dependent manner,suppressed both IL-1β and TNFα production in a concentration dependent manner,–,–,–,–,–
"c1ccc(-c2cc(-c3ccncc3)c(N3CCN(c4ncccn4)CC3)nn2)cc1 [MW01-6-189WH, 4-pyridyl-6-phenyl-3-(4-pyrimidin-2-ylpiperazin-1-yl)pyridazine]",–,–,4.81,–,–,–,–
"Clc1cc(-c2ccccc2)nnc1N1CCN(c2ncccn2)CC1 [MW01-6-127WH, 4-chloro-6-phenyl-3-(4-pyrimidin-2-ylpiperazin-1-yl)pyridazine]",–,–,–,19,–,–,–
"Cc1cc(-c2ccccc2)nnc1N1CCN(c2ncccn2)CC1 [MW01-2-151SRM, 4-methyl-6-phenyl-3-(4-pyrimidin-2-ylpiperazin-1-yl)pyridazine]",suppress IL-1β in a concentration dependent manner,–,9.21,8,no significant effects,no significant effects,"oral availability [2]: orally available; activated glia responses [1]: selective suppressor; efficacy in the mouse model of human Aβ-induced neuroinflammation and neuronal injury ([3]; mouse, in vivo): showed efficacy; inflammatory response endpoints outside the brain ([3]; mouse, in vivo): did not suppress; stability in microsomes [4]: demonstrated; cardiac QT interval (anesthetized guinea pigs; baseline, 15, 30, 45, 60 min, vs mean+2 SD of vehicle control): Neither compound increased"
"c1ccc(-c2cc(-c3ccccc3)c(N3CCN(c4ncccn4)CC3)nn2)cc1 [MW01-5-188WH, 4,6-diphenyl-3-(4-pyrimidin-2-ylpiperazin-1-yl)pyridazine]",concentration-dependent inhibition,concentration-dependent inhibition,–,91,no significant effects,no significant effects,"Accumulation of the NO metabolite, nitrite ([1]; concentrations up to 33 μM): not inhibited; number of F4/80 positive microglia in the hippocampus ([3]; daily oral […] for 2 weeks): decreased; COX-2 production (activated glia): does not suppress; apoE production (activated glia): does not suppress; iNOS production (activated glia): does not suppress"
